Data set [1] has as its target T1, GIPR (CHO-K1-hGIPR cells) (Homo sapiens, UniProt P48546).
T1 construct: host or cells: CHO-K1
T1 sequence (P48546 22-466): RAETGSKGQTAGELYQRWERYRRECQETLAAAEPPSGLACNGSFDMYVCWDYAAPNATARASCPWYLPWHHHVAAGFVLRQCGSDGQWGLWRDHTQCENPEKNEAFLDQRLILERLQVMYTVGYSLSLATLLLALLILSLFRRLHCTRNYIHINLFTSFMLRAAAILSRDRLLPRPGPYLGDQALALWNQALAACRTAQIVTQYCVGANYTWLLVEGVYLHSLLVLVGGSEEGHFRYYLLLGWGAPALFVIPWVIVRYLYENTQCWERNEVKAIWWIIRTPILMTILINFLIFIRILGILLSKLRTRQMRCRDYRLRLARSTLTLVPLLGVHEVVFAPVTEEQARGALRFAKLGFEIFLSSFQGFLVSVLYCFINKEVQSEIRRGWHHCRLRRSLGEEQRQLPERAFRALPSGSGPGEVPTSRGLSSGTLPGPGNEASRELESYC
Kind of data set: FACS binding assay. An outline of the steps: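 Median fluorescence in the APC channel, measured on washed CHO-K1 cells overexpressing human GIPR, was fitted by four-parameter logistic regression against peptide concentration to yield EC50 or IC50 values. Secondary labelling used APC-streptavidin (1 μg/mL, 30 min, ice).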
On the technique in general: In flow cytometry, cells or beads pass a laser one at a time.

The target of data set [2] is Recombinant soluble human NEP (Homo sapiens, UniProt P08473). Kind of data set: Proteolytic stability assay against NEP. The following applies: NEP 100 ng/mL, compound 10 μM, 37° C., % intact compound remaining.
Data set [3] is described as follows: Plasma stability assay, mouse plasma. Format: in vitro ADME. The following applies: 37° C., % intact compound remaining after 4 h or 24 h. The protocol: (§1) In order to determine the stability of selected compounds of the invention in human and mouse plasma, a plasma stability assay was carried out. Such plasma stability assay measures degradation of compounds of the present invention in blood plasma. This is an important characteristic of a compound as compounds, with the exception of pro-drugs, which rapidly degrade in plasma, generally show poor in vivo efficacy. […] The stability is sufficient for the diagnostic, therapeutic and theragnostic use of these compounds according to the present invention.
(§2) The plasma stability samples were prepared by spiking 50 μL plasma aliquots (all K2EDTA) with 1 μL of a 0.5 mM compound stock solution in DMS0. After vortexing the samples were incubated in a Thermomixer at 37° C. for 0, 4 and 24 hours. After incubation the samples were stored on ice until further treatment. All samples were prepared in duplicates.
(§3) A suitable internal standard was added to each sample (1 μL of a 0.5 mM stock solution in DMSO). Protein precipitation was performed by addition of 250 μL of acetonitrile containing 1% trifluoroacetic acid. After incubation at room temperature for 30 min the precipitate was separated by centrifugation and 150 μL of the supernatant was diluted with 150 μL of 1% aqueous formic acid.
(§4) Additionally, recovery was determined by spiking a pure plasma sample that only contained the internal standard after treatment with a certain amount of the compound.
(§5) Carry-over was evaluated by analysis of a blank sample (20% acetonitrile) after the highest calibration sample.

Data set [4] can be described thus: Plasma stability assay, human plasma. As to conditions: 37° C., % intact compound remaining after 4 h or 24 h. Format: in vitro ADME. The protocol:
as §1, §2, §3, §4, §5

Setting [5] is: competition with 20 nM GIP-057, 4° C., 1 hour, read-out: pIC50 Category (converted).
Where [6] appears, read: competition with 20 nM GIP-057, 4° C. for 1 hour, read-out: pIC50 Category (converted).

Each structure is given as a SMILES string. Like-named read-outs stand apart in the source and are kept apart here. *1 amine or outer side, *2 acyl side, *3 side chain or, on linkers, in order; H or OH if unused. Where a SMILES comes first, the peptide text is derived from it. Bridges are numbered along the chain shown (N, C = ends). Side-chain parts run from the residue outwards. [ ]: non-standard residue; d: D form. The star is where a group is joined. NH(1-deoxy-D-glucityl) = OC[C@@H](O)[C@@H](O)[C@H](O)[C@@H](O)CN*; DOTA = O=C(O)CN1CCN(CC(=O)O)CCN(CC(=O)*)CCN(CC(=O)O)CC1; Trp(5-Cl) = N[C@@H](Cc1c[nH]c2ccc(Cl)cc12)C(=O)O; Pyridine(2,6-diCH2) = c1cc(C[*:1])nc(C[*:2])c1; mXylylene = c1cc(C[*:1])cc(C[*:2])c1; Glutaryl = O=C(CCCC(=O)[*:2])[*:1]; Hyp = O=C(O)[C@@H]1C[C@@H](O)CN1; X1 = O=C(CN1CCC(N[*:1])CC1)[*:2]; Api = NC1(C(=O)O)CCNCC1

Recombinant soluble human NEP, sequence (P08473 52-750 limits assumed): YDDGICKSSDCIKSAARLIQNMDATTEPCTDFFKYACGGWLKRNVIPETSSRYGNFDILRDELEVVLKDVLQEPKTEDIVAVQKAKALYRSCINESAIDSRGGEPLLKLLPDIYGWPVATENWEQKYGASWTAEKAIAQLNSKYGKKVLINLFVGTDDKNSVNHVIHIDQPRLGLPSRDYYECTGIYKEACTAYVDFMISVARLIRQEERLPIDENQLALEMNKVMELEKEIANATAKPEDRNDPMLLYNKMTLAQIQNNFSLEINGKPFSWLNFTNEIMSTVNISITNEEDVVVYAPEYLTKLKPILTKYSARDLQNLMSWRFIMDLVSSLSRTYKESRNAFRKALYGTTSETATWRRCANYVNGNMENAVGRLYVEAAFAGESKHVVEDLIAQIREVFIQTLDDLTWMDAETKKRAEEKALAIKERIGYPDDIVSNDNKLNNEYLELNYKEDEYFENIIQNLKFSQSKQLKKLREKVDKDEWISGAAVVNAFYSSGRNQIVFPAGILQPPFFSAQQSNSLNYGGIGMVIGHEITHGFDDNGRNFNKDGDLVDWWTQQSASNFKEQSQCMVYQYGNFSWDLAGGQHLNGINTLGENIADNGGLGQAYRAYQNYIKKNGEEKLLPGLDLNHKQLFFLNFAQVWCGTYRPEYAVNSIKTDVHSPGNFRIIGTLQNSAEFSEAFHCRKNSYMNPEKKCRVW

Consider `CC[C@H](C)[C@@H]1NC(=O)[C@H](CC(C)C)NC(=O)C2(CCN(C(=O)CCCC(=O)NC[C@H](O)[C@@H](O)[C@H](O)[C@H](O)CO)CC2)NC(=O)[C@@H](NC(=O)[C@@H](CC(C)C)NC(=O)[C@H](CCC(=O)O)NC(=O)[C@@H]2C[C@@H](O)CN2C(=O)[C@H](Cc2c[nH]c3ccc(Cl)cc23)NC(=O)[C@H](Cc2c[nH]c3ccccc23)NC(=O)[C@H](CC(=O)O)NC(=O)CN2CCC(NC(=O)[C@@H](CCC(=O)NC[C@H](O)[C@@H](O)[C@H](O)[C@H](O)CO)NC(=O)CN3CCN(CC(=O)O)CCN(CC(=O)O)CCN(CC(=O)O)CC3)CC2)CSCc2cccc(n2)CSC[C@@H](C(=O)NC2CCN(CC(=O)N[C@H](CCC(=O)NC[C@H](O)[C@@H](O)[C@H](O)[C@H](O)CO)C(N)=O)CC2)NC1=O` [GIP-003, DOTA-glu(AGLU)-APAc-Asp-Trp-5Clw-Hyp-Glu-leu-[Cys(2Lut)-Apc(AGLU-Glutar)-Leu-Ile-Cys]-APAc-glu(AGLU)-NH2] ({DOTA}-[dE](NH(1-deoxy-D-glucityl))[X1]DW[Trp(5-Cl)][Hyp]E[dL]C[Api]([Glutaryl-NH(1-deoxy-D-glucityl)])LIC[X1][dE](NH(1-deoxy-D-glucityl))-NH2; linker 9-13 via Pyridine(2,6-diCH2)), for which the IC50 in data set [1] (setting [5]) was below 10 nM. For the same compound, the NEP stability category entry in data set [2] was “A (>80% intact after 24 hours)”.
In data set [1] (pIC50 Category, competition with 20 nM GIP-057, 4° C., 1 hour), `CC[C@H](C)[C@@H]1NC(=O)[C@H](CC(C)C)NC(=O)C2(CCN(C(=O)CN3CCN(CC(=O)O)CCN(CC(=O)O)CCN(CC(=O)O)CC3)CC2)NC(=O)[C@@H](NC(=O)[C@@H](CC(C)C)NC(=O)[C@H](CCC(=O)O)NC(=O)[C@@H]2C[C@@H](O)CN2C(=O)[C@H](Cc2c[nH]c3ccc(Cl)cc23)NC(=O)[C@H](Cc2c[nH]c3ccccc23)NC(=O)[C@H](CC(=O)O)NC(=O)CN2CCC(NC(=O)CCOCCOCCOCCOCCOCCOCCOCCOCCOCCOCCOCCOCCOCCOCCOCCOCCOCCOCCOCCOCCOCCOCCOCCOCCOCCOCCOCCOCCOCCOCCOCCOCCOCCOCCOCCOCCOC)CC2)CSCc2cccc(n2)CSC[C@@H](C(=O)N[C@H](CCC(=O)NC[C@H](O)[C@@H](O)[C@H](O)[C@H](O)CO)C(N)=O)NC1=O` [GIP-040, Me036PEG-APAc-Asp-Trp-5Clw-Hyp-Glu-leu-[Cys(2Lut)-Apc(DOTA)-Leu-Ile-Cys]-glu(AGLU)-NH2] displayed an IC50 of 10 to 79.4 nM. The NEP stability category result in data set [2] was “A (>80% intact after 24 hours)”.
For the compound `CC[C@H](C)[C@@H]1NC(=O)[C@H](CC(C)C)NC(=O)[C@H](C)NC(=O)[C@@H](NC(=O)[C@H](CC(C)C)NC(=O)[C@H](CCC(=O)O)NC(=O)[C@@H]2CCCN2C(=O)[C@H](Cc2c[nH]c3ccccc23)NC(=O)[C@H](Cc2c[nH]c3ccccc23)NC(=O)[C@H](CC(=O)O)NC(=O)[C@H](Cc2ccc(O)cc2)NC(C)=O)CSCc2cccc(c2)CSC[C@@H](C(N)=O)NC1=O` [GIP-240, Ac-Tyr-Asp-Trp-Trp-Pro-Glu-Leu-[Cys(3MeBn)-Ala-Leu-Ile-Cys]-NH2] (Ac-YDWWPELCALIC-NH2; linker 8-12 via mXylylene), in data set [1] (setting [5]), the IC50 was 10 to 79.4 nM. Moreover, the “Mouse plasma stability category” value in data set [3] is reported as “B (>80% intact after 4 hours)”. Moreover, the “Human plasma stability category” value in data set [4] is on record as “B (>80% intact after 4 hours)”.
Regarding `CC[C@H](C)[C@@H]1NC(=O)[C@H](CC(C)C)NC(=O)[C@H](CCC(N)=O)NC(=O)[C@@H](NC(=O)[C@H](CC(C)C)NC(=O)[C@H](CCC(=O)O)NC(=O)[C@@H]2CCCN2C(=O)[C@H](Cc2c[nH]c3ccccc23)NC(=O)[C@H](Cc2c[nH]c3ccccc23)NC(=O)[C@H](CC(=O)O)NC(=O)[C@H](Cc2ccc(O)cc2)NC(=O)[C@@H](N)CCSC)CSCc2cccc(c2)CSC[C@@H](C(N)=O)NC1=O` [GIP-241] (H-MYDWWPELCQLIC-NH2; linker 9-13 via mXylylene), the IC50 in data set [1] (setting [5]) is 10 to 79.4 nM. In addition, the “Mouse plasma stability category” value in data set [3] is reported as “C (≥50% intact after 4 hours)”. Also, in data set [4], the “Human plasma stability category” value is on record as “B (>80% intact after 4 hours)”.
On the same counts, the results for `CC[C@H](C)[C@@H]1NC(=O)[C@H](CC(C)C)NC(=O)[C@H]([C@@H](C)O)NC(=O)[C@@H](NC(=O)[C@H](CC(C)C)NC(=O)[C@H](CCC(=O)O)NC(=O)[C@@H]2CCCN2C(=O)[C@H](Cc2c[nH]c3ccccc23)NC(=O)[C@H](Cc2c[nH]c3ccccc23)NC(=O)[C@H](CC(=O)O)NC(=O)[C@H](Cc2ccc(O)cc2)NC(=O)[C@@H](N)CCSC)CSCc2cccc(c2)CSC[C@@H](C(N)=O)NC1=O` [GIP-242] (H-MYDWWPELCTLIC-NH2; linker 9-13 via mXylylene) are 10 to 79.4 nM, “C (≥50% intact after 4 hours)” and “B (>80% intact after 4 hours)”.
As for `CC[C@H](C)[C@@H]1NC(=O)[C@H](CC(C)C)NC(=O)[C@H](C)NC(=O)[C@@H](NC(=O)[C@H](CC(C)C)NC(=O)[C@@H](CCC(=O)O)NC(=O)[C@@H]2CCCN2C(=O)[C@H](Cc2c[nH]c3ccccc23)NC(=O)[C@H](Cc2c[nH]c3ccccc23)NC(=O)[C@H](CC(=O)O)NC(=O)[C@H](Cc2ccc(O)cc2)NC(=O)[C@@H](N)CCSC)CSCc2cccc(c2)CSC[C@@H](C(N)=O)NC1=O` [GIP-245, H-Met-Tyr-Asp-Trp-Trp-Pro-glu-Leu-[Cys(3MeBn)-Ala-Leu-Ile-Cys]-NH2] (H-MYDWWP[dE]LCALIC-NH2; linker 9-13 via mXylylene), the IC50 in data set [1] (setting [6]) was 10 to 79.4 nM. Moreover, in data set [3], the “Mouse plasma stability category” value was “D (<50% intact after 4 hours)”. Further, in data set [4], the “Human plasma stability category” value is “B (>80% intact after 4 hours)”.
On the same counts, the results for `CC[C@H](C)[C@@H]1NC(=O)[C@H](CC(C)C)NC(=O)[C@H](C)NC(=O)[C@@H](NC(=O)[C@H](CC(C)C)NC(=O)[C@H](CCC(=O)O)NC(=O)[C@@H]2CCCN2C(=O)[C@H](Cc2c[nH]c3ccccc23)NC(=O)[C@H](Cc2c[nH]c3ccccc23)NC(=O)[C@H](CC(=O)O)NC(=O)[C@@H](Cc2ccc(O)cc2)NC(=O)[C@@H](N)CCSC)CSCc2cccc(c2)CSC[C@@H](C(N)=O)NC1=O` [GIP-246, H-Met-tyr-Asp-Trp-Trp-Pro-Glu-Leu-[Cys(3MeBn)-Ala-Leu-Ile-Cys]-NH2] (H-M[dY]DWWPELCALIC-NH2; linker 9-13 via mXylylene) are 10 to 79.4 nM, “B (>80% intact after 4 hours)” and “B (>80% intact after 4 hours)”.
`CC[C@H](C)[C@@H]1NC(=O)[C@H](CC(C)C)NC(=O)[C@H](C)NC(=O)[C@@H](NC(=O)[C@@H](CC(C)C)NC(=O)[C@H](CCC(=O)O)NC(=O)[C@@H]2CCCN2C(=O)[C@H](Cc2c[nH]c3ccccc23)NC(=O)[C@H](Cc2c[nH]c3ccccc23)NC(=O)[C@H](CC(=O)O)NC(=O)[C@H](Cc2ccc(O)cc2)NC(=O)[C@@H](N)CCSC)CSCc2cccc(c2)CSC[C@@H](C(N)=O)NC1=O` [GIP-247, H-Met-Tyr-Asp-Trp-Trp-Pro-Glu-leu-[Cys(3MeBn)-Ala-Leu-Ile-Cys]-NH2] (H-MYDWWPE[dL]CALIC-NH2; linker 9-13 via mXylylene): the IC50 in data set [1] (setting [6]) is 10 to 79.4 nM. Further, in data set [3], the “Mouse plasma stability category” value is listed as “D (<50% intact after 4 hours)”. In data set [4], the “Human plasma stability category” value was “C (≥50% intact after 4 hours)”.
On the same counts, the results for `CC[C@H](C)[C@@H]1NC(=O)[C@H](CC(C)C)NC(=O)[C@@H](C)NC(=O)[C@@H](NC(=O)[C@H](CC(C)C)NC(=O)[C@H](CCC(=O)O)NC(=O)[C@@H]2CCCN2C(=O)[C@H](Cc2c[nH]c3ccccc23)NC(=O)[C@H](Cc2c[nH]c3ccccc23)NC(=O)[C@H](CC(=O)O)NC(=O)[C@H](Cc2ccc(O)cc2)NC(=O)[C@@H](N)CCSC)CSCc2cccc(c2)CSC[C@@H](C(N)=O)NC1=O` [GIP-248] (H-MYDWWPELC[dA]LIC-NH2; linker 9-13 via mXylylene) are 10 to 79.4 nM, “D (<50% intact after 4 hours)” and “B (>80% intact after 4 hours)”.

These data come from patent publication US20250296971A1, “GASTRIC INHIBITORY PEPTIDE RECEPTOR LIGANDS” (priority 2021, published 2025).
